Laboratory results published in patent US11052092B2, “N-{[2-(piperidin-1-yl)phenyl](phenyl)methyl}-2-(3-oxo-3,4-dihydro-2H-1,4-benzoxazin-7-yl)acetamide derivatives and related compounds as ROR-gamma modulators for treating autoimmune diseases” (Genfit, priority 2017, dated 2021).
Structures can show the parent of a compound that is named as a salt.

Row | melting point | SMILES
1 | 99 °C | Cc1ccc(C(NC(=O)Cc2ccc3[nH]cc(CO)c3c2)c2ccc(C)o2)c(N2CCCCC2)c1 (centres unmarked) (as salt: HCl) [Cpd. 58, 2-[3-(hydroxymethyl)-1H-indol-5-yl]-N-{[4-methyl-2-(piperidin-1-yl)phenyl](5-methylfuran-2-yl)methyl}acetamide]
2 | 86 °C | Cc1ccc(C(NC(=O)C2(c3ccc4c(c3)CS(=O)(=O)N4)CC2)c2ccc(Cl)o2)c(C)c1 (centres unmarked) (as salt: HCl) [Cpd. 87, N-[(5-chlorofuran-2-yl)(2,4-dimethylphenyl)methyl]-1-(2,2-dioxo-1,3-dihydro-2,1-benzothiazol-5-yl)cyclopropane-1-carboxamide]
3 | 82 °C | Cc1ccc(C(NC(=O)C2(c3ccc4c(c3)OCC(=O)N4)CC2)c2ccc(C)o2)c(Br)c1 (centres unmarked) (as salt: HCl) [Cpd. 135, N-[(2-bromo-4-methylphenyl)(5-methylfuran-2-yl)methyl]-1-(3-oxo-3,4-dihydro-2H-1,4-benzoxazin-7-yl)cyclopropane-1-carboxamide]
4 | 70 °C | Cc1ccc(C(NC(=O)C2(c3ccc4c(c3)CS(=O)(=O)N4C)CC2)c2ccc(C)o2)c(C)c1 (centres unmarked) (as salt: HCl) [Cpd. 70, N-[(2,4-dimethylphenyl)(5-methylfuran-2-yl)methyl]-1-(1-methyl-2,2-dioxo-1,3-dihydro-2,1-benzothiazol-5-yl)cyclopropane-1-carboxamide]
5 | 68 °C | Cc1ccc(C(NC(=O)Cc2ccc3[nH]cc(C)c3c2)c2ccc(C)o2)c(N2CCCCC2)c1 (centres unmarked) (as salt: HCl) [Cpd. 64, 2-(3-methyl-1H-indol-5-yl)-N-{[4-methyl-2-(piperidin-1-yl)phenyl](5-methylfuran-2-yl)methyl}acetamide]
6 | 237 °C | Cc1ccc(C(NC(=O)Cc2cc(C)c3c(c2)CC(=O)N3)c2ccc(C)o2)c(N2CCCCC2)c1 (centres unmarked) (as salt: HCl) [Cpd. 54, N-{[4-methyl-2-(piperidin-1-yl)phenyl](5-methylfuran-2-yl)methyl}-2-(7-methyl-2-oxo-2,3-dihydro-1H-indol-5-yl)acetamide]
7 | 134 °C | CSc1ccc2cc(CC(=O)NC(c3ccc(C)o3)c3ccc(C)cc3N3CCCCC3)ccc2c1 (centres unmarked) (as salt: HCl) [Cpd. 91, N-{[4-methyl-2-(piperidin-1-yl)phenyl](5-methylfuran-2-yl)methyl}-2-[6-(methylsulfanyl)naphthalen-2-yl]acetamide]
8 | 60 °C | Cc1ccc(C(NC(=O)Cc2ccc3c(c2)C(O)CC3)c2ccc(C)o2)c(N2CCCCC2)c1 (centres unmarked) (as salt: sodium) [Cpd. 85, 2-(3-hydroxy-2,3-dihydro-1H-inden-5-yl)-N-{[4-methyl-2-(piperidin-1-yl)phenyl](5-methylfuran-2-yl)methyl}acetamide]
9 | 97 °C | Cc1ccc(C(NC(=O)C2(c3ccc4c(c3)CS(=O)(=O)N4)CC2)c2ccc(C)o2)c(C)c1 (centres unmarked) (as salt: HCl) [Cpd. 63, N-[(2,4-dimethylphenyl)(5-methylfuran-2-yl)methyl]-1-(2,2-dioxo-1,3-dihydro-2,1-benzothiazol-5-yl)cyclopropane-1-carboxamide]
10 | 99 °C | Cc1ccc(C(NC(=O)C2(c3ccc4c(c3)OCC(=O)N4)CC2)c2ccc(C)o2)c(N(C)C)c1 (centres unmarked) (as salt: HCl) [Cpd. 156, N-{[2-(dimethylamino)-4-methylphenyl](5-methylfuran-2-yl)methyl}-1-(3-oxo-3,4-dihydro-2H-1,4-benzoxazin-7-yl)cyclopropane-1-carboxamide]
11 | 70 °C | Cc1ccc(C(NC(=O)C2(c3ccc4c(c3)CS(=O)(=O)N4C)CC2)c2ccc(Cl)o2)c(C)c1 (centres unmarked) (as salt: HCl) [Cpd. 160, N-[(5-chlorofuran-2-yl)(2,4-dimethylphenyl)methyl]-1-(1-methyl-2,2-dioxo-1,3-dihydro-2,1-benzothiazol-5-yl)cyclopropane-1-carboxamide]
